From patent publication US4103005A, “Novel-enkephalin analogs” (Hoffmann-La Roche Inc., priority 1977, dated 1978)
Where a SMILES comes first, the peptide text is derived from it. [ ]: non-standard residue; d: D form. Thz = O=C(O)[C@@H]1CSCN1

Columns and labels:
[1] = cited from earlier work; for Analgesic activity reported in the literature: in vivo
[2] = test system: male ICR mice; test: Analgesic assay by the tail-flick method in mice; assay type: in vivo; settings: for Tail-flick inhibition after intravenous injection: 1.1 to 8.5 mg/kg injected intravenously; for Effect of naloxone pretreatment on inhibition of the tail-flick response: Naloxone HCl 3 mg/kg subcutaneously 5 min before the analog; for Tail-flick inhibition after central application: doses 0.17 to 0.85 μg (D-Met analog) and 0.011 to 0.085 μg (D-Thr analog); for Intracerebroventricular AD50 (median antinociceptive dose) / Intracerebroventricular potency ratio / Intravenous AD50 (median antinociceptive dose) / Intravenous potency ratio: mice; for Intracerebroventricular AD50 (median antinociceptive dose): intracerebroventricular (central) injection; for Intracerebroventricular AD50 (median antinociceptive dose) / Intravenous AD50 (median antinociceptive dose): tail-flick; for Intracerebroventricular potency ratio / Intravenous potency ratio: relative to morphine sulfate = 1, molar basis; for Intravenous AD50 (median antinociceptive dose): intravenous injection via tail vein; for Analgesic activity (summary statement): mouse, in vivo
Method: For analgesic assay, male ICR mice weighing 25-30 g were used in all the experiments. The enkephalin analogs dissolved in saline were administered either centrally according to the method described by Haley and McCormick, Br. J. Pharmacol, 12, 12 (1957) or intravenously via the tail vein. The injection volume is 5 μl for central injection and 10 μl per gram body weight for intravenous injection. Naloxone HCl (3 mg/kg) was injected subcutaneously 5 min before the administration of enkephalin analogs. Analgesic activity was assayed by the tail-flick method of D'Amour and Smith, J. Pharmacol, Exp. Ther. 72, 74 (1941).
The percent of analgesia was calculated as [(T1 -T0)/(T2 -T0)] × 100, where a control latency (T0) was obtained from the mean of two latencies determined before drug injection; the test latencies (T1) were determined at various times after injection for each animal; the cutoff time (T2) for the tail-flick was 7 seconds. The median analgesic dose (AD50) and 95% confidence limits were calculated according to the method of Litchfield and Wilcoxon, J. Pharacol. Exp. Ther. 96, 99 (1949). The locomotor activity to the mice was measured with an electronic Fe 40 motility meter (Motron Produkter, Stockholm, Sweden). The detail of the experimental method has been described by Tseng et al., Nature (London) 263, 239 (1976).

[3] = test system: male ICR mice; settings: cited from earlier work

D-Ala^2, MePhe^4, Met-O^5 -ol enkephalin
Analgesic activity reported in the literature [1]: most potent analgesic of the group
Oral activity reported in the literature ([1]; oral): orally active

C[C@H](O)[C@@H](NC(=O)[C@@H](N)Cc1ccc(O)cc1)C(=O)NCC(=O)N[C@@H](Cc1ccccc1)C(=O)N1CSC[C@H]1C(N)=O [D-Thr^2,Thz^5 -Enkephalinamide, H-Tyr-D-Thr-Gly-Phe-Thz-NH2] (H-Y[dT]GF[Thz]-NH2)
Tail-flick inhibition after intravenous injection [2]: active in inhibiting the tail-flick response
Effect of naloxone pretreatment on inhibition of the tail-flick response [2]: blocked by the pretreatment of naloxone
Potency, times more potent than [D-Met^2, Thz^5 ]-enkephalinamide ([2]; applied centrally): 3.5 times
Tail-flick inhibition after central application ([2]; applied centrally): dose-related increase in intensity and duration of the tail-flick inhibition
Duration of analgesia ([2]; intravenous injection): longer than that produced by [D-Met^2,Thz^5 ]-enkephalinamide
Intracerebroventricular AD50 (median antinociceptive dose) [2]: 0.04 nmole/mouse
Intracerebroventricular potency ratio [2]: 27.1
Intravenous AD50 (median antinociceptive dose) [2]: 2.40 µmol/kg
Intravenous potency ratio [2]: 4.8
Analgesic activity (summary statement) [2]: potent analgesic agents

βc -Endorphin (YGGFMTSEKSQTPLVTLFKNAIIKNAHKKGQ; Beta-endorphin; UniProt P01203 1-31, looked up) [reference compound]
Intracerebroventricular AD50 (median antinociceptive dose) [2]: 0.032 nmole/mouse
Intracerebroventricular potency ratio [2]: 34.7
Intravenous AD50 (median antinociceptive dose) [2]: 2.7 µmol/kg
Intravenous potency ratio [2]: 4.2
Locomotor activity (previously shown) [3]: stimulate locomotor activity weakly or not at all

D-Ala^2,D-Leu^5 -Enkephalin [reference compound]
Intracerebroventricular AD50 (median antinociceptive dose) [2]: 0.035 nmole/mouse
Intracerebroventricular potency ratio [2]: 31.7

[D-Met^2, Pro^5 ]-enkephalinamide
Analgesic activity reported in the literature [1]: potent analgesic agent

Met-enkephalin [reference compound]
Intracerebroventricular AD50 (median antinociceptive dose) [2]: > 174 nmole/mouse
Intracerebroventricular potency ratio [2]: < 0.006
Intravenous AD50 (median antinociceptive dose) [2]: > 60 µmol/kg
Intravenous potency ratio [2]: < 0.19

CSCC[C@@H](NC(=O)[C@@H](N)Cc1ccc(O)cc1)C(=O)NCC(=O)N[C@@H](Cc1ccccc1)C(=O)N1CSC[C@H]1C(N)=O [D-Met^2,Thz^5 -Enkephalinamide, H-Tyr-D-Met-Gly-Phe-Thz-NH2] (H-Y[dM]GF[Thz]-NH2)
Tail-flick inhibition after intravenous injection [2]: active in inhibiting the tail-flick response
Effect of naloxone pretreatment on inhibition of the tail-flick response [2]: blocked by the pretreatment of naloxone
AD50, times higher than [D-Thr^2,Thz^5 ]-enkephalinamide ([2]; applied centrally): 3.5 times
Tail-flick inhibition after central application ([2]; applied centrally): dose-related increase in intensity and duration of the tail-flick inhibition
Intracerebroventricular AD50 (median antinociceptive dose) [2]: 0.145 nmole/mouse
Intracerebroventricular potency ratio [2]: 7.7
Intravenous AD50 (median antinociceptive dose) [2]: 2.71 µmol/kg
Intravenous potency ratio [2]: 4.2
Analgesic activity (summary statement) [2]: potent analgesic agents

CN1CC[C@]23c4c5ccc(O)c4O[C@H]2[C@@H](O)C=C[C@H]3[C@H]1C5.O=S(=O)(O)O [Morphine sulfate, reference compound]
Intracerebroventricular AD50 (median antinociceptive dose) [2]: 1.11 nmole/mouse
Intravenous AD50 (median antinociceptive dose) [2]: 11.4 µmol/kg
